Measured values reported in US20220193029A1, “BRYOSTATIN COMPOUNDS FOR ENHANCEMENT OF IMMUNOTHERAPY” (priority 2019, published 2022).

Experiments:
PKCα = biological target: T1, PKCα (Homo sapiens, UniProt P17252); assay: cell-free competitive PKC binding assay with [3H]-phorbol dibutyrate; settings: competition with [3H]-PDBu, recombinant human PKC isoform
T1 construct: purchased Invitrogen
Protocol: (§1) Because a prerequisite for PKC pathway involvement is binding to PKC, compounds were initially evaluated for PKC affinity in a cell-free competitive binding assay with tritiated phorbol dibutyrate ([^3H]-PDBu). Assays were performed with representative members of both the conventional (PKCα) and novel (PKCδ) PKC families. Subsequently, compounds were assayed for PKC activation in living cells using an isoform translocation assay.
(§2) To a 50 mL polypropylene tube was added Tris-HCl (pH 7.4, 1 M, 1 mL), KCl (1 M, 2 mL), CaCl2) (0.1 M, 30 μL), and bovine serum albumin (BSA, 40 mg, Sigma-Aldrich). This mixture was diluted to 20 mL with deionized H2O and mixed gently. The buffer was stored on ice until use.
(§3) For every two assays, 3.5 mg phosphatidylserine (Avanti Polar Lipids, porcine, 25 mg/mL CHCl3 solution) was concentrated by removing chloroform under a stream of nitrogen followed by reduced pressure. The solid PS was suspended as vesicles in freshly prepared PKC binding assay buffer (3.5 mL) by sonicating six times for 30 sec, with a 30 sec rest between sonications (Branson Sonifier 250, power=2, 50% duty cycle). The resulting milky cloudy mixture (1 mg/mL) was stored on ice until use.
(§4) Assay PKC was prepared by dissolving a 4 μg aliquot of the indicated recombinant human PKC isoform (Invitrogen) into 11.6 mL of PKC binding assay buffer (this amount is sufficient for two assays). The diluted PKC was stored on ice for immediate use.
(§5) ^3H-PDBu (American Radiolabeled Chemicals, Inc.; 1 mCi/mL acetone solution; specific activity: 20 Ci/mmol) was diluted […] with DMSO. The resulting 500 nM stock solution was further diluted with DMSO to 30 nM.
(§6) Compound dilutions were prepared by serially diluting from a chosen “high” concentration by factors of 3 or 4.
(§7) To a polypropylene tube was added 3.3 mL of 1 mg/mL PS vesicles solution, 11 mL of PKC isoform solution, and 1.1 mL of 30 nM ^3H-PDBu solution were added. The resulting solution was vortexed to mix and stored on ice.
(§8) Materials: • Glass-fiber filters (Whatman GF/B) were prepared by soaking them in a solution of aqueous polyethyleneimine (10% by vol, 18 mL) in deionized water (600 mL) for ≥1 h. • 500 mL “rinsing buffer” of 20 mM Tris, pH 7.4 was cooled on ice for the duration of the incubation period and for the remainder of the assay.
(§9) Triplicate data points were obtained for each analog concentration. For each data point, 280 μL of “Master Mix” Solution and 20 μL of analog compound at a specified concentration were added to a polypropylene tube. […] Maximal ^3H-PDBu binding was assessed in triplicate by substitution of the analog compound with 20 μL DMSO. The solutions were vortexed to mix, incubated at 37° C. for 10 min, and incubated on ice for at least 30 min prior to filtration. Using a Brandel Harvester, the assay contents from each polypropylene tube were vacuum-filtered through polyethylenimine-soaked filters, washing with rinsing buffer (3×) and drying first under vacuum for 5 min and then under ambient conditions for ≥2 h. The resulting filters had circular perforations for each data point, which were removed with forceps and placed in a scintillation vial. Scintillation vials were filled with Bio-Safe II scintillation fluid (5 mL) and measured for radioactivity using a Beckman LS 6000SC scintillation counter. Counts per minute (cpm) were averaged for each triplicate dilution. The data were plotted—cpm vs. log(concentration)—using Prism® by GraphPad Software and an IC50 was determined using that program's built-in one-site competition least squares regression function. Ki values were calculated using the equation: Ki=IC50/(1+([3H−PDBu]/Kd)). The Kd of ^3H-PDBu for PKC isoforms was measured separately via saturation binding experiments under identical conditions.

PKC = assay: cell-free PKC binding assay, isoform not given; set-up: species or system human
Protocol: as §1, §4, §9

[1] = test system: CD22 surface expression in NALM6 cells; assay: CD22 surface expression assay by flow cytometry; assay type: cell-based, human
Protocol: Cell cultures were maintained between 4×10^5 and 3×10^6 cells/mL according to vendor instructions.
Cell suspension from a confluent T75 flask (Fisher) was transferred to a 15 mL falcon tube and centrifuged at 1100 rpm for 7 minutes. […] Cells were counted using a Countess II Automated Cell Counter (Fisher). […] 199 μL of this stock was added to 24 wells (enough for triplicate measurements for 8 different experimental conditions) in a 96-well plate. […] 1 μL of DMSO or the appropriate stock solution of compound in DMSO was added to each well. Cells were incubated for 24 hours, at which point the cell suspensions were transferred to 1.5 mL Eppendorf tubes and diluted with 1.0 mL of PBS (Hyclone, without Ca^2+ or Mg^2+). Samples were centrifuged at 2000 rpm for 5 min at RT. […] Cells were sub-cultured between 2×10^5 and 3×10^6 cells/mL in 24-well plates for an additional 24 hrs-7 days, at which point CD22 surface expression was assayed by flow cytometry.
Cells from one well were counted using a Countess II Automated Cell Counter (Fisher). ˜200,000-300,000 cells from each well were added to 1.5 mL Eppendorf tubes containing PBS (final volume ˜1.2 mL). The cell suspensions were centrifuged at 1500 rpm for 7 minutes at 4° C. The supernatant was aspirated, and the cell pellet was resuspended in 99 μL of pre-chilled FACS buffer (0.5% w/v BSA in PBS). […] Samples were then diluted with an additional 1.0 mL of FACS buffer and centrifuged at 1500 rpm for 7 minutes at 4° C. […] Cells were stained with DAPI and CD22 surface expression was analyzed using the FACScan Analyzer at the Stanford Shared FACS Facility. Data analysis was performed using FlowJo and Microsoft Excel.

[2] = test system: CD22 surface expression in JB cells; assay: CD22 surface expression assay, AIDS-NHL cell line JB; settings: 1 nM or 10 nM, 48 hours
Protocol: (§10) AIDS-NHL cell lines were incubated in IF10 medium, consisting of IMDM medium (Life technologies) containing 10% fetal bovine serum (FBS, Omega Scientific), 100 units/mL of penicillin, and 100 μg/ml of streptomycin (Invitrogen). Cells were incubated at 37° C. in 5% CO2.
(§11) Cells were exposed to compound for the either 24 or 48 h before staining and flow cytometric analysis of receptor levels.
(§12) Cells in each well were washed with phosphate buffered saline (PBS) containing 2% FBS, then cells were centrifuged for 9 min at 233 xg and resuspended in 50 μL of a 1:1 dilution of phosphate buffered saline (PBS): Human AB serum (Sigma). […] Stained samples were stored at 4° C. Flow cytometry samples were analyzed using a FACSCelesta (BD Biosciences) flow cytometer and data were analyzed using FlowJo software (version 10).
(§13) Panel C: JB cells were incubated with 1 nM (left hand bars) or 10 nM (right hand bars) of compound for 48 hours. CD22 surface expression was then assayed by flow cytometry (n=6 biological replicates; data presented as mean values ±SE). Panel D: 2F7 cells were incubated with 1 nM (left hand bars) or 10 nM (right hand bars) of compound for 48 hours. CD22 surface expression was then assayed by flow cytometry (n=6 biological replicates; data presented as mean values ±SE).

[3] = test system: CD22 surface expression in 2F7 cells; assay: CD22 surface expression assay, AIDS-NHL cell line 2F7; settings: 1 nM or 10 nM, 48 hours
Protocol: as §10, §11, §12, §13

NALM6 tumor cells = assay: NSG mice with NALM6 tumor cells treated with CD22 CAR T cells plus bryostatin 1; settings: NALM6 tumor cells day 0, CD22 CAR day 3, bryostatin 1 three times weekly for 2 weeks
Source text: Mice were imaged using IVIS™ technology and luciferin-D IP injections.

PKCδ = biological target: T2, PKCδ (Homo sapiens, UniProt Q05655); assay: cell-free competitive PKC binding assay with [3H]-phorbol dibutyrate; settings: competition with [3H]-PDBu, recombinant human PKC isoform
T2 construct: purchased Invitrogen
Protocol: as §1, §2, §3, §4, §5, §6, §7, §8
Triplicate data points were obtained for each analog concentration. For each data point, 280 μL of “Master Mix” Solution and 20 μL of analog compound at a specified concentration were added to a polypropylene tube. […] Maximal ^3H-PDBu binding was assessed in triplicate by substitution of the analog compound with 20 μL DMSO. The solutions were vortexed to mix, incubated at 37° C. for 10 min, and incubated on ice for at least 30 min prior to filtration. Using a Brandel Harvester, the assay contents from each polypropylene tube were vacuum-filtered through polyethylenimine-soaked filters, washing with rinsing buffer (3×) and drying first under vacuum for 5 min and then under ambient conditions for ≥2 h. The resulting filters had circular perforations for each data point, which were removed with forceps and placed in a scintillation vial. Scintillation vials were filled with Bio-Safe II scintillation fluid (5 mL) and measured for radioactivity using a Beckman LS 6000SC scintillation counter. Counts per minute (cpm) were averaged for each triplicate dilution. The data were plotted—cpm vs. log(concentration)—using Prism® by GraphPad Software and an IC50 was determined using that program's built-in one-site competition least squares regression function. […] The Kd of ^3H-PDBu for PKC isoforms was measured separately via saturation binding experiments under identical conditions.

PKCδ-GFP fusion protein = assay: PKCδ-GFP translocation assay in living CHO-k1 cells (confocal microscopy); assay type: cell-based, Chinese hamster
Protocol: as §1
Chinese hamster ovary factor K1 (CHO-k1, ATCC) cells were cultured in F-12 Kaighn's media (Hyclone, 10% fetal bovine serum, 1% penicillin/streptomycin added, referred to as F-12+/+ below) at 37° C. in an incubator (5% CO2). Cell cultures were maintained by splitting cells 1:3 when they reached ˜75-100% confluence (every 2-3 days) as follows:
1 mL of the cell suspension was then added to 9 mL of fresh F-12+/+ and the sample was sub-cultured until reaching confluence (˜2-3 days).
Cells were counted using a Countess II Automated Cell Counter (Fisher). The cell suspension was diluted to 240,000 cells/mL with fresh F-12+/+ and 2.5 mL of this diluted stock was added to one well in a 6-well plate. The cells were then cultured for 24 hours.
F-12+/+ was aspirated and cells were washed with F-12−/−. 2 mL of fresh F-12−/− was then added to each well, taking care not to disturb adherent cells. For each well of CHO-k1 cells, 12.5 μL Lipofectamine 2000 reagent (Invitrogen) was added to 250 μL Opti-MEM reduced serum media (Invitrogen) in a polypropylene tube and incubated for 20 minutes at RT. Meanwhile, for each well, 4 μg of PKCδ-GFP pDNA and 250 μL Opti-MEM reduced serum media was added to a separate polypropylene tube. 250 μL of the Lipofectamine 2000 suspension was added to the DNA suspension and the solution incubated for 30 minutes at RT. 500 μL of the Lipofectamine/DNA suspension was added to the respective wells of the 6-well plate. The cells were then incubated at 37° C. (5% CO2) for ˜24 hrs.
F-12+/+ was aspirated and cells were washed with F-12−/−. 2.4 mL of fresh F-12−/− was then added to each well, taking care not to disturb adherent cells. A 4 μg aliquot of PKCδ-GFP pDNA was added to PBS (pH 5.5, final volume 100 μL). 5.6 μL of DA 13:11 (2 mM stock in DMSO) was then added to the DNA solution, and the mixture was gently mixed (by flicking) for 20 seconds, at which point it was added directly to the respective wells of the 6-well plate. The cells were then incubated at 37° C. (5% C02) for ˜24 hrs.
After incubation, the media was aspirated and cells were washed with PBS (2.0 mL) and trypsinized (500 μL). The cell suspension was then diluted with 2.0 mL F-12+/+. 200 μL aliquots were added to 3 wells of a Lab-Tek II 4-well chambered coverglass slide (Fisher), producing 4 slides in total, each with three wells of cells. The cell suspension was directly diluted with 600 μL of additional F-12+/+. The resulting samples were incubated for ˜24 hrs. prior to imaging.
Fluorescent images were obtained using a Leica SP8 White Light Confocal microscope and the Leica AF software package. Prior to analysis, media was aspirated and 800 μL of PBS (Hyclone, without Ca^2+ or Mg^2+) supplemented with glucose (10 mM) was added to each well of the chambered coverglass slide. Bryostatin and bryostatin analogs were diluted to the appropriate concentration in 200 μL of 10 mM glucose in PBS. Cells were located for imaging and data was recorded for three wells in parallel, imaging at predetermined positions in each well using adaptive focus control. Cells were imaged at 30 second intervals following the addition of compound (set to t=0) for 20-40 minutes. Data were recorded at room temperature. Images were exported as .lif files and fluorescence intensity was analyzed using FIJI (NIH) software.

T2 sequence (Q05655 whole entry, canonical isoform): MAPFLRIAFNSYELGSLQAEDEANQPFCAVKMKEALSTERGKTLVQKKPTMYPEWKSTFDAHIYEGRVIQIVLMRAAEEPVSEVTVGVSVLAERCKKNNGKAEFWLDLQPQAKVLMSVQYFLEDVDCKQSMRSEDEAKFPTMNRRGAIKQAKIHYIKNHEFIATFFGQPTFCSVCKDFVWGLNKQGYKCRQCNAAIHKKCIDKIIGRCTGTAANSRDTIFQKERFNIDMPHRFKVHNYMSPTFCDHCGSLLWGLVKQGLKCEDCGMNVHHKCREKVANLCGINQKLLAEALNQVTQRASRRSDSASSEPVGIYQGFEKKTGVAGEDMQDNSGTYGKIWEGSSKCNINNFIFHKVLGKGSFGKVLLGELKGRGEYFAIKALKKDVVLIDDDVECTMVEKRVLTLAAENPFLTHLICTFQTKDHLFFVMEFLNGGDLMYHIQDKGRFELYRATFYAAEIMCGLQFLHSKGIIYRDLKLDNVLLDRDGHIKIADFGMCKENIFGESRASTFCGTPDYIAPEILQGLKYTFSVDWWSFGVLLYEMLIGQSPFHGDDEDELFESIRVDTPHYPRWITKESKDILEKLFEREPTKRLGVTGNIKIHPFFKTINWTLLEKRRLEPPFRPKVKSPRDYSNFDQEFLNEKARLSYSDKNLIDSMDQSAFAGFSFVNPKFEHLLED

SMILES | Ki (PKCα) | binding affinity to PKC, in words (PKC) | time for which increased CD22 surface expression was sustained following treatment ([1]; 10 nM for 24 hours, then washed out and sub-cultured) | increase in CD22 surface density ([1]; NALM6 cells incubated 24 hours, flow cytometry) | upregulated CD22 surface expression [2] | upregulated CD22 surface expression [3] | durability of response to CD22 CAR T cell treatment (NALM6 tumor cells) | Ki (PKCδ) | activity in the PKC translocation assay at 200 nM (PKCδ-GFP fusion protein; 200 nM) | cytosolic PKC translocated to the plasma membrane (PKCδ-GFP fusion protein; 1000 nM, at about 5 minutes) | concentration* (minimum effective concentration required to induce translocation of PKC-GFP to the membrane) (PKCδ-GFP fusion protein; CHO-k1 cells) | % Translocation (PKCδ-GFP fusion protein; maximum translocation of PKCδ-GFP to the plasma membrane at the concentration printed in the same cell, CHO-k1 cells, SUW212: only brief translocation observed)
CCC/C=C/C=C/C(=O)O[C@H]1/C(=C/C(=O)OC)C[C@H]2C[C@H]([C@@H](C)O)OC(=O)C[C@H](O)C[C@@H]3C[C@H](OC(C)=O)C(C)(C)[C@](O)(C[C@@H]4C/C(=C/C(=O)OC)C[C@H](/C=C/C(C)(C)[C@]1(O)O2)O4)O3 [Bryostatin 1, reference compound] | 0.8 nM | single digit nanomolar binder | up to 7 days | > 2 fold | ~2 fold | ~2 fold | improves durability of response |  |  |  |  | 
CCCC=CC=CC(=O)OC1C(=CC(=O)OC)CC2CC(C(C)O)OC(=O)CC(O)CC3CC(OC(C)=O)C(C)(C)C(O)(CC4CC(=CC(=O)OC)CC(C=CC(C)(C)C1(O)O2)O4)O3 (centres unmarked) [SUW201] | 0.54 nM |  |  |  | ~2 fold | ~2 fold |  |  |  |  |  | 
CCCC=CC=CC(=O)OC1C(=CC(=O)OC)CC2CC(C(C)O)OC(=O)CC(O)CC3CC(OC(C)=O)C(C)(C)C(O)(CC4CC(OC(=O)CCc5c[nH]c6ccccc56)CC(C=CC(C)(C)C1(O)O2)O4)O3 (centres unmarked) [SUW210] | 5.6 nM | high affinity PKC binders |  |  |  |  |  | 7.3 nM | inactive | ~70% | 1000 nM | 75%
